Strand notation (5' to 3'): a small letter for the sugar, then the base; units joined by * are phosphorothioate-linked, units joined directly phosphodiester-linked; [ ] holds rarer units or linkages, { } end groups; capitals alone tell only the bases. k = constrained ethyl (cEt); [5mC] = 5-methylcytosine; d = 2'-deoxy (DNA)
These substances were tested on Yap1 mRNA (assay: Antisense inhibition of human Yap1 in A-431 cells by cEt gapmers, single dose (Example 3, RTS36584)). Conditions: Table 8; A-431 cells, 5,000 cells per well, free uptake, 2,000 nM, approximately 48 hours; RTS36584; normalized to RIBOGREEN; Yap1 mRNA relative to untreated control cells.
Format: cell-based
How it was run: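 Read-out is Yap1 mRNA as percent of untreated control, by quantitative RT-PCR normalized to total RNA (RiboGreen). Cells (A-431) received 2,000 nM of 3-10-3 cEt phosphorothioate gapmer via free uptake for roughly 48 hours.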

Substance | YAP1 (% UTC)
958362 (antisense kA*kG*k[5mC]*dT*d[5mC]*dG*dA*dA*d[5mC]*dA*dT*dG*d[5mC]*kT*kG*kT) [Compound 958362] | 58
958353 (antisense kT*k[5mC]*kG*dG*dT*d[5mC]*dT*d[5mC]*d[5mC]*dG*dA*dG*dT*k[5mC]*k[5mC]*k[5mC]) [Compound 958353] | 43
958406 (antisense kT*kT*kT*d[5mC]*dA*dG*dT*dT*dA*dT*d[5mC]*dG*dG*k[5mC]*k[5mC]*k[5mC]) [Compound 958406] | 29
958386 (antisense kG*kG*k[5mC]*dG*d[5mC]*dG*d[5mC]*dG*d[5mC]*dA*dT*dT*dG*kT*kG*k[5mC]) [Compound 958386] | 111
958363 (antisense kT*kG*kA*dG*d[5mC]*dT*d[5mC]*dG*dA*dA*d[5mC]*dA*dT*kG*k[5mC]*kT) [Compound 958363] | 70

Same assay, conditions: Table 9; A-431 cells, 5,000 cells per well, free uptake, 2,000 nM, approximately 48 hours; RTS36584; normalized to RIBOGREEN; Yap1 mRNA relative to untreated control cells

Substance | YAP1 (% UTC)
958656 (kA*k[5mC]*kG*d[5mC]*dA*dA*dT*d[5mC]*dT*dG*dT*dG*dA*kT*k[5mC]*k[5mC]; antisense) [Compound 958656] | 48
958741 (antisense kG*kT*kT*dA*d[5mC]*dT*dG*d[5mC]*dA*dA*d[5mC]*dT*dG*k[5mC]*k[5mC]*k[5mC]) [Compound 958741] | 14
958471 (antisense k[5mC]*kT*kT*dA*dG*dA*dT*d[5mC]*d[5mC]*dT*dT*d[5mC]*dA*k[5mC]*kA*kG) [Compound 958471] | 14
958756 (antisense kG*kT*kG*dT*dT*dG*d[5mC]*dA*dT*dG*dA*d[5mC]*dA*kG*k[5mC]*k[5mC]) [Compound 958756] | 15

Same assay, conditions: Table 10; A-431 cells, 5,000 cells per well, free uptake, 2,000 nM oligonucleotide, approx. 48 hours; primer probe set RTS36584; Yap1 mRNA normalized to RIBOGREEN, percent of untreated control

Substance | YAP1 (% UTC)
958477 (antisense kA*kT*kT*dT*d[5mC]*d[5mC]*dG*dG*dT*dG*d[5mC]*dA*dT*kG*kT*kG) [Compound 958477] | 2
958647 (kT*kA*kG*dG*dA*dA*dG*dT*dT*dG*dT*dT*dG*kA*k[5mC]*k[5mC]; antisense) [Compound 958647] | 11
958772 (antisense k[5mC]*kA*kA*d[5mC]*dA*dA*dA*d[5mC]*dA*dT*dA*dG*dT*kT*kA*k[5mC]) [Compound 958772] | 61

Same assay, conditions: Table 11; A-431 cells, 5,000 cells per well, free uptake, 2,000 nM oligonucleotide, approx. 48 hours; primer probe set RTS36584; Yap1 mRNA normalized to RIBOGREEN, percent of untreated control

Substance | YAP1 (% UTC)
958633 (antisense kT*kG*kT*d[5mC]*dA*dT*d[5mC]*dA*dG*dG*dT*dT*dA*kA*kG*kT) [Compound 958633] | 76
958673 (kA*kG*kA*dA*d[5mC]*dT*dT*dA*dG*dT*dT*d[5mC]*d[5mC]*k[5mC]*kT*kT; antisense) [Compound 958673] | 30
958513 (kG*k[5mC]*kG*d[5mC]*dT*dA*d[5mC]*d[5mC]*dA*dT*dT*dT*dT*kA*kA*kA; antisense) [Compound 958513] | 104
958528 (kA*kG*kT*d[5mC]*dT*dT*dG*dT*dA*dA*dG*dT*dA*kA*kG*kA; antisense) [Compound 958528] | 18

Same assay, conditions: Table 12; A-431 cells, 5,000 cells per well, free uptake, 2,000 nM modified oligonucleotide, approx. 48 hours; RTS36584; normalized to RIBOGREEN; Yap1 mRNA relative to untreated control cells

Substance | YAP1 (% UTC)
958664 (kA*k[5mC]*kG*dA*dA*d[5mC]*dT*dA*dA*dG*dG*dT*dG*kT*kA*k[5mC]; antisense) [Compound 958664] | 40
958754 (antisense k[5mC]*k[5mC]*kT*dT*dA*dG*dG*dA*dA*dG*dG*d[5mC]*dT*k[5mC]*k[5mC]*k[5mC]) [Compound 958754] | 31
958719 (antisense kG*kT*kA*d[5mC]*dA*dT*dA*dA*dT*dG*dG*dG*d[5mC]*kT*kA*kA) [Compound 958719] | 49
958624 (antisense kG*kG*kG*dA*dT*dT*dG*dA*dT*dA*dT*dT*d[5mC]*k[5mC]*kG*k[5mC]) [Compound 958624] | 74

Same assay, conditions: Table 13; A-431 cells, 5,000 cells per well, free uptake, 2,000 nM modified oligonucleotide, approx. 48 hours; RTS36584; normalized to RIBOGREEN; Yap1 mRNA relative to untreated control cells

Substance | YAP1 (% UTC)
958650 (kT*k[5mC]*kA*dA*dT*dT*dG*dA*dG*dT*d[5mC]*dT*dG*k[5mC]*kT*kA; antisense) [Compound 958650] | 3
958680 (kA*kT*kT*dA*dA*d[5mC]*dA*d[5mC]*d[5mC]*dT*dG*dA*dG*k[5mC]*kT*kG; antisense) [Compound 958680] | 50
958800 (antisense kT*k[5mC]*kG*dA*dT*dA*dA*dT*dA*dT*dA*dT*dG*kG*k[5mC]*kA) [Compound 958800] | 22
958695 (antisense kT*k[5mC]*kA*dA*dT*dT*d[5mC]*dT*d[5mC]*d[5mC]*dA*d[5mC]*d[5mC]*kA*kG*kA) [Compound 958695] | 45
958505 (kG*kA*kT*dA*dA*dT*d[5mC]*dG*dA*dG*dA*dT*dT*kT*kA*kA; antisense) [Compound 958505] | 6

Same assay, conditions: Table 26; Yap1 mRNA by 3-10-3 cEt gapmers targeting SEQ ID NO.: 1, and 2; percent of untreated control

Substance | YAP1 (% UTC)
1074732 (k[5mC]*k[5mC]*kA*dG*dG*dT*dA*dT*d[5mC]*dA*d[5mC]*dA*dG*kT*kA*k[5mC]; antisense) [compound 1074732] | 30
1074700 (antisense kG*kT*kA*dA*dG*dA*d[5mC]*dA*dA*dG*dT*d[5mC]*dT*kT*kT*kA) [compound 1074700] | 26
1075948 (antisense kG*kG*kA*d[5mC]*dT*dA*dA*dA*dG*dA*dA*dT*dA*k[5mC]*kA*kG) [compound 1075948] | 31
1075628 (antisense k[5mC]*k[5mC]*kG*d[5mC]*dA*dA*dA*dA*dT*dA*dT*dT*dA*kA*kT*kT) [compound 1075628] | 118

Same assay, conditions: Table 27; Yap1 mRNA by 3-10-3 cEt gapmers targeting SEQ ID NO.: 1, and 2; percent of untreated control

Substance | YAP1 (% UTC)
1076109 (k[5mC]*kT*kT*dA*dA*dA*dT*dG*dA*d[5mC]*d[5mC]*dA*dA*kT*kT*k[5mC]; antisense) [compound 1076109] | 23
1075405 (antisense k[5mC]*kT*kA*dT*dA*dT*dA*dA*d[5mC]*d[5mC]*dT*dG*dA*kA*k[5mC]*kT) [compound 1075405] | 84
1075117 (k[5mC]*k[5mC]*kT*d[5mC]*dA*dA*dT*dA*dG*d[5mC]*dA*dA*dG*kA*k[5mC]*kA; antisense) [compound 1075117] | 48

Same assay, conditions: Table 28; Yap1 mRNA as percent of untreated control; 3-10-3 cEt gapmers targeting SEQ ID NO.: 1, and 2

Substance | YAP1 (% UTC)
1075342 (antisense kA*k[5mC]*kT*dA*dA*dA*dA*dG*dG*dG*dA*dG*dT*kA*kG*kG) [compound 1075342] | 87
1074862 (kT*kA*kT*dG*dA*dG*d[5mC]*dA*dT*dG*d[5mC]*dT*d[5mC]*kT*kT*kA; antisense) [compound 1074862] | 56
1076078 (k[5mC]*kT*kT*dT*dA*dG*d[5mC]*d[5mC]*dT*d[5mC]*dT*dA*dT*kA*k[5mC]*k[5mC]; antisense) [compound 1076078] | 23
1075790 (kT*k[5mC]*kA*dG*dA*dA*dG*dA*dA*d[5mC]*dT*d[5mC]*d[5mC]*k[5mC]*kA*kT; antisense) [compound 1075790] | 14
1076014 (kA*kA*kT*d[5mC]*dA*dA*d[5mC]*d[5mC]*dT*dA*dT*dG*dA*kG*kG*kT; antisense) [compound 1076014] | 98

Same assay, conditions: Table 29; Yap1 mRNA as percent of untreated control; 3-10-3 cEt gapmers targeting SEQ ID NO.: 1, and 2

Substance | YAP1 (% UTC)
1075599 (antisense kA*k[5mC]*k[5mC]*d[5mC]*dT*dA*dT*dA*dG*d[5mC]*dT*dT*dT*kA*kG*kG) [compound 1075599] | 90
1075887 (antisense kT*kA*kT*dT*dA*d[5mC]*dT*dT*dG*dA*dT*dT*dG*kA*k[5mC]*kA) [compound 1075887] | 10
1075439 (antisense kA*kA*kT*dT*dA*dG*dA*dG*dA*dT*dA*dT*dG*kG*kA*k[5mC]) [compound 1075439] | 77

Same assay, conditions: Table 34; Yap1 mRNA as percent of untreated control; 3-10-3 cEt gapmers targeting SEQ ID NO: 1 and 2; single dose

Substance | YAP1 (% UTC)
1075156 (kA*kT*kT*dA*dT*dA*dT*dG*dA*d[5mC]*dT*d[5mC]*dT*kG*k[5mC]*kT; antisense) [compound 1075156] | 22
1074388 (kG*kA*k[5mC]*dT*dT*dG*dG*d[5mC]*dA*dT*d[5mC]*dA*dG*k[5mC]*kT*k[5mC]; antisense) [compound 1074388] | 16

Same assay, conditions: Table 35; Yap1 mRNA as percent of untreated control; 3-10-3 cEt gapmers targeting SEQ ID NO: 1 and 2; single dose

Substance | YAP1 (% UTC)
1075381 (antisense kT*kA*kT*dT*dA*d[5mC]*d[5mC]*d[5mC]*dT*dA*d[5mC]*dT*d[5mC]*kA*kT*kA) [compound 1075381] | 89
1076277 (kG*k[5mC]*kT*dA*dA*dA*dA*d[5mC]*dA*dT*d[5mC]*dA*dG*kA*kT*kA; antisense) [compound 1076277] | 24
1076213 (kT*k[5mC]*kT*d[5mC]*dA*dA*dG*dG*dA*dA*dT*dT*dG*k[5mC]*k[5mC]*kT; antisense) [compound 1076213] | 27
1075349 (antisense kA*kT*kT*dA*dA*dA*dG*d[5mC]*dT*d[5mC]*dA*dT*dT*kG*kA*kT) [compound 1075349] | 81

— patent US11214803B2, “Modulators of YAP1 expression” (Ionis Pharmaceuticals, Inc., priority 2019, dated 2022)
